Experimental data reported in patent US5143911A, “Antibiotic C-3 di-hydroxyphenyl substituted cephalosporin compounds, compositions and method of use thereof” (Bristol-Myers Squibb Company, priority 1990, dated 1992).
Values after ≈ are worked out from the molar mass of the structure shown.

Experiments:
P. acnes A 21933 = assay: In vitro activity against anaerobes (MIC); format: cell-based; conditions: Cutibacterium acnes, A21933, Gp
[1] = tested on: Cephalothin (CET)sensitive E. coli(2), Kl. pneumoniae(1) and Pr. mirabilis(2); assay: MIC, two-fold serial agar dilution, Mueller-Hinton agar (geometric mean, group Gn-Ia); format: cell-based; conditions: 5 strains
Description: (§1) For a primary evaluation of some representative compounds of this invention, minimum inhibitory concentrations (MIC's) were determined against 32 strains of test organisms by two-fold serial agar dilution method in Mueller-Hinton agar.
GnIa: Cephalothin (CET)sensitive E. coli(2)*, Kl. pneumoniae(1) and Pr.

B. subtilis PCI 219 = conditions: Bacillus subtilis, PCI219, 18 h, pH 7.2
B. fragilis A 22693 = assay: In vitro activity against anaerobes (MIC), two-fold serial agar dilution, GAM agar; format: cell-based; conditions: Bacteroides fragilis, A22693, Gn, Beta-Lactamase(-)
C. difficile A 21675 = assay: In vitro activity against anaerobes (MIC); format: cell-based; conditions: Clostridioides difficile, A21675, Gp, Clindamycin-resistant
E. faecalis A9808 = conditions: Enterococcus faecalis, A9808, 18 h, pH 7.2
S. marcescens IPM-15 = conditions: Serratia marcescens, IPM15, 18 h, pH 7.2
M. morgani 1510 = conditions: 18 h, pH 7.2
C. freundii GN 7391 = conditions: Citrobacter freundii, GN7391, 18 h, pH 7.2
B. fragilis A 22053 = assay: In vitro activity against anaerobes (MIC), two-fold serial agar dilution, GAM agar; format: cell-based; conditions: Bacteroides fragilis, A22053, Gn, Beta-Lactamase(-)
S. aureus 209P = conditions: Staphylococcus aureus, 18 h, pH 7.2
B. fragilis A 22533 = assay: In vitro activity against anaerobes (MIC), two-fold serial agar dilution, GAM agar; format: cell-based; conditions: Bacteroides fragilis, A22533, Gn, Beta-Lactamase(+)
E. coli 255 = conditions: Escherichia coli, 255, 18 h, pH 7.2
E. coli Juhl = assay: MIC against the infecting organism (Table 2); conditions: Escherichia coli
Ps. aeruginosa (7) = assay: MIC, two-fold serial agar dilution, Mueller-Hinton agar (geometric mean, group Gn-III); format: cell-based; conditions: Pseudomonas aeruginosa, 7 strains
Description: as §1
GnIII: Ps. aeruginosa (7)

S. marcescens IPM-16 = conditions: Serratia marcescens, IPM16, 18 h, pH 7.2
E. cloacae IPM-12 = conditions: Enterobacter cloacae, IPM12, 18 h, pH 7.2
B. fragilis A 22534 = assay: In vitro activity against anaerobes (MIC), two-fold serial agar dilution, GAM agar; format: cell-based; conditions: Bacteroides fragilis, A22534, Gn, Beta-Lactamase(+)
S. aureus IPM-24 (MRSA) = conditions: Staphylococcus aureus, 18 h, pH 7.2
P. aeruginosa IPM-9 = conditions: Pseudomonas aeruginosa, IPM9, 18 h, pH 7.2
B. fragilis A 22021 = assay: In vitro activity against anaerobes (MIC), two-fold serial agar dilution, GAM agar; format: cell-based; conditions: Bacteroides fragilis, A22021, Gn, Beta-Lactamase(-)
P. vulgaris IPM-13 = format: cell-based; conditions: Proteus vulgaris, IPM13, pH 7.2, 32° C. 18 hr, 10^6 cells/ml
P. aeruginosa 9843A = assay: MIC against the infecting organism (Table 2); conditions: Pseudomonas aeruginosa
C. perfringens A9635 = assay: microbe, parasite or virus in culture; format: cell-based; conditions: Clostridium perfringens
P. aeruginosa KKA 19 = conditions: Pseudomonas aeruginosa, KKA19, 18 h, pH 7.2
S. epidermidis 11-1168 = format: cell-based; conditions: Staphylococcus epidermidis, 111168, pH 7.2, 32° C. 18 hr, 10^6 cells/ml
E. faecium A24817 = format: cell-based; conditions: Enterococcus faecium, pH 7.2, 32° C. 18 hr, 10^6 cells/ml
B. fragilis CUH-108 = assay: In vitro activity against anaerobes (MIC), two-fold serial agar dilution, GAM agar; format: cell-based; conditions: Bacteroides fragilis, CUH108, Gn, Beta-Lactamase(+), Clindamycin-resistant
Description: In vitro activity against anaerobic bacteria was determined on eight strains of B. fragilis by two-fold serial agar dilution method in GAM agar.

S. aureus Smith = conditions: Staphylococcus aureus, 18 h, pH 7.2
[2] = tested on: Penicillin (PC)sensitive S. (5 strains); assay: MIC, two-fold serial agar dilution, Mueller-Hinton agar (geometric mean, group Gp-Ia); format: cell-based, S. aureus; conditions: Staphylococcus aureus
Description: as §1
Gp-Ia: Penicillin (PC)sensitive S.

B. fragilis A 22695 = assay: In vitro activity against anaerobes (MIC), two-fold serial agar dilution, GAM agar; format: cell-based; conditions: Bacteroides fragilis, A22695, Gn, Beta-Lactamase(+)
P. aeruginosa A20599 = format: cell-based; conditions: Pseudomonas aeruginosa, pH 7.2, 32° C. 18 hr, 10^6 cells/ml
P. cepacia No. 651 = conditions: Burkholderia cepacia, NO.651, 18 h, pH 7.2

## CO/N=C(\C(=O)NC1C(=O)N2C(C(=O)O)=C(/C=C/COC(=O)c3ccc(O)c(O)c3)CS[C@H]12)c1csc(N)n1 (stereo partly drawn) [Ia, 7-[(Z)-2-(2-Aminothiazol-4-yl)-2-methoxyiminoacetamido]-3-[(E)-3-(3,4-dihydroxybenzoyloxy)-1-propen-1-yl]-3-cephem-4-carboxylic acid]
P. acnes A 21933
  MIC: 0.4 µg/mL (≈ 0.695 µM)
[1]
  MIC: 0.017 µg/mL (≈ 0.0295 µM)
B. subtilis PCI 219
  MIC: 0.2 µg/mL (≈ 0.347 µM)
B. fragilis A 22693
  MIC: 0.8 µg/mL (≈ 1.39 µM)
C. difficile A 21675
  MIC: 12.5 µg/mL (≈ 21.7 µM)
E. faecalis A9808
  MIC: 100 µg/mL (≈ 174 µM)
S. marcescens IPM-15
  MIC: > 100 µg/mL
M. morgani 1510
  MIC: 3.1 µg/mL (≈ 5.39 µM)
C. freundii GN 7391
  MIC: 12.5 µg/mL (≈ 21.7 µM)
B. fragilis A 22053
  MIC: 0.8 µg/mL (≈ 1.39 µM)
S. aureus 209P
  MIC: 3.1 µg/mL (≈ 5.39 µM)
B. fragilis A 22533
  MIC: > 50 µg/mL
E. coli 255
  MIC: 0.2 µg/mL (≈ 0.347 µM)
E. coli Juhl
  MIC: 0.1 µg/mL (≈ 0.174 µM)
Ps. aeruginosa (7)
  MIC: 1.9 µg/mL (≈ 3.3 µM)
S. marcescens IPM-16
  MIC: > 100 µg/mL
E. cloacae IPM-12
  MIC: > 100 µg/mL
B. fragilis A 22534
  MIC: > 50 µg/mL
S. aureus IPM-24 (MRSA)
  MIC: > 100 µg/mL
P. aeruginosa IPM-9
  MIC: 6.3 µg/mL (≈ 10.9 µM)
B. fragilis A 22021
  MIC: 0.2 µg/mL (≈ 0.347 µM)
P. vulgaris IPM-13
  MIC: > 100 µg/mL
P. aeruginosa 9843A
  MIC: 3.1 µg/mL (≈ 5.39 µM)
C. perfringens A9635
  MIC: 0.2 µg/mL (≈ 0.347 µM)
P. aeruginosa KKA 19
  MIC: 50 µg/mL (≈ 86.9 µM)
S. epidermidis 11-1168
  MIC: 3.1 µg/mL (≈ 5.39 µM)
E. faecium A24817
  MIC: > 100 µg/mL
B. fragilis CUH-108
  MIC: 25 µg/mL (≈ 43.4 µM)
S. aureus Smith
  MIC: 1.6 µg/mL (≈ 2.78 µM)
[2]
  MIC: 1.2 µg/mL (≈ 2.08 µM)
B. fragilis A 22695
  MIC: 12.5 µg/mL (≈ 21.7 µM)
P. aeruginosa A20599
  MIC: 3.1 µg/mL (≈ 5.39 µM)
P. cepacia No. 651
  MIC: 12.5 µg/mL (≈ 21.7 µM)
